Experimental data taken from US12428394B2, “2,4-disubstituted pyrimidine derivative, preparation method therefor and use thereof” (CHENGDU ZENITAR BIOMEDICAL TECHNOLOGY CO., LTD., priority 2019, dated 2025).

Legend:
[1] = tested on: JAK2/FLT3 signaling pathway related proteins; experiment: Immunoblot experiment on JAK2/FLT3 signaling pathway related proteins in MV4-11 and SET-2 cells; assay type: cell-based; conditions: different concentrations
Method: The cells were subjected to SDS-PAGE gel electrophoresis with 8%-16% gradient gels, and constant flow membrane was carried out. The cells were blocked with 5% skim milk, and the primary antibody FLT3 (CST, 3462S), […] (CST, 3464S), STAT5 (CST, 9363S), […] (Abcam, ab32364), JAK2 (Proteintech, 02802), p-JAK2 (Abcam, ab32101), JAK1 (Santa Cruz Biotechnology, sc-136225), […] (Santa Cruz Biotechnology, sc-101716), GAPDH (Abways, AB0037), Rb (Abways, CY5661), […] (Abways, CY5260) was incubated. The next day, the cells were washed with PBS/T for three times, horseradish enzyme-labeled goat anti-mouse second antibody (Abways, AB0102) and horseradish enzyme-labeled goat anti-rabbit second antibody (Abways, AB0101) were incubated at room temperature, then the cells were washed with PBS/T for three times, and developed by the addition of the ECL chemiluminescent substrate.

[2] = tested on: SET-2 cells (JAK2 V617F); experiment: Inhibition of cell proliferation by MTT experiment, SET-2; assay type: cell-based; conditions: Homo sapiens, SET-2, 72 h, read-out: IC50 value on cell proliferation inhibition, SET-2 (V617F)
Method in brief: (§1)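 MTT assay in MV4-11, MOLM-13 (FLT3-ITD) and SET-2 (JAK2 V617F) cells at 10,000–15,000 cells/well in IMDM with 10% FBS. Cells are exposed to compound for 72 h at 37 °C, then to MTT for 1–3 h. IC50 is fitted from inhibition rates across concentrations.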

[3] = tested on: MV4-11 cells (FLT3-ITD+/+); experiment: Inhibition of cell proliferation by MTT experiment, MV4-11; assay type: cell-based, human; conditions: Homo sapiens, MV4-11, 72 h, read-out: IC50 value on cell proliferation inhibition, MV4-11 FLT3-ITD+/+
Method in brief: as §1

[4] = target: T1, JAK3 (Homo sapiens, UniProt P52333); experiment: In vitro kinase activity experiment, JAK3; assay type: biochemical
T1 construct: purchased Eurofins
T1 sequence (P52333 1-1124): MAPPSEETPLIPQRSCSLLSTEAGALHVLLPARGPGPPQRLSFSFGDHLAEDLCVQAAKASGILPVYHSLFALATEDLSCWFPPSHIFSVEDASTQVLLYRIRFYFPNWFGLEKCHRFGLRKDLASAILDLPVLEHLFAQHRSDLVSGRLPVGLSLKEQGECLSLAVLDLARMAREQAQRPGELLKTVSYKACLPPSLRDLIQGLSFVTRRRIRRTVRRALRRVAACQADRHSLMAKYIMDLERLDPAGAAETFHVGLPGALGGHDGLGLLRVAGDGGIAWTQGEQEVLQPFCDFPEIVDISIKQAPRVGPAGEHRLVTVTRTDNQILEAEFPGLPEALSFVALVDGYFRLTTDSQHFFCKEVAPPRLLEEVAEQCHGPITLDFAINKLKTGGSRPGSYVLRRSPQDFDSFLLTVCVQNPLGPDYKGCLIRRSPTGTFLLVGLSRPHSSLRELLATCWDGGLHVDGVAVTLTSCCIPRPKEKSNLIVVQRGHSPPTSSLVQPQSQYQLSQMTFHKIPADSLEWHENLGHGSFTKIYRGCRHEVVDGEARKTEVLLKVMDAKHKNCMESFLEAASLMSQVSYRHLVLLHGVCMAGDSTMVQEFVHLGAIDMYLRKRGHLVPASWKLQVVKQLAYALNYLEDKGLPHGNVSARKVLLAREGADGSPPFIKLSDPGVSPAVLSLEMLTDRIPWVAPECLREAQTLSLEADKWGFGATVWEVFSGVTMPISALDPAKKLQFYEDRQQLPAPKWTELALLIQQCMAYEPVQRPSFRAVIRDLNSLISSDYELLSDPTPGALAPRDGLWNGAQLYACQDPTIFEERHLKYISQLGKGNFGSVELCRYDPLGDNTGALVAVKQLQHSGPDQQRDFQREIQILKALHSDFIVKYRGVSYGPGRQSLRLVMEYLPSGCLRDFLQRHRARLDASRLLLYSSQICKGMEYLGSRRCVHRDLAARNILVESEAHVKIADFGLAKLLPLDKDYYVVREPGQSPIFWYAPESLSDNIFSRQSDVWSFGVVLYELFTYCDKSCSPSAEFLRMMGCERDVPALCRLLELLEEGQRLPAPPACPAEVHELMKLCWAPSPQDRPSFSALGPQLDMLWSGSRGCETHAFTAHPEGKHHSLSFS
Method: Buffer solution ([…], pH 7.0, 0.2 mm EDTA, 10 mM mncl2), kinase to be tested, substrate of kinase to be tested, 10 mM magnesium acetate and γ33P-ATP solution, and compounds with different concentrations were added to a reaction tube in turn, then MgATP was added to initiate the enzyme reaction process, and incubated at room temperature for 40 min. Then, the reaction was terminated with 5 μl of […], and 10 μl of the reaction solution was titrated onto the Filtermat A membrane, washed with 75 mM phosphate solution for three times, each time for 5 min., and then washed with methanol once. Finally, the Filtermat A membrane was dried and the scintillation count was carried out.

[5] = tested on: MOLM-13 cells (FLT3-ITD-/+); experiment: Inhibition of cell proliferation by MTT experiment, MOLM-13; assay type: cell-based, human; conditions: Homo sapiens, MOLM-13, 72 h, read-out: IC50 value on cell proliferation inhibition, MOLM-13 FLT3-ITD-/+
Method in brief: as §1

**Q.** For Cc1cnc(Nc2ccc(N3CCC(N(C)CCO)CC3)c(F)c2)nc1-c1cnn(C(C)C)c1 [CLJ-44, 5-methyl-N-(3-fluoro-4-(4-N-hydroxyethyl-4-N-methylaminopiperidine-1-yl)phenyl)-4-(1-isopropyl-1H-pyrazole-4-yl) pyrimidine-2-amine], which “autophosphorylation of JAK2/FLT3 (immunoblot)” value [1] is on record?
**A.** Its value is “significantly inhibited the autophosphorylation of JAK2/FLT3 in a dose-dependent relationship”.

**Q.** And the “effect on JAK subtype JAK1 (immunoblot)” value [1]?
**A.** Its value is “weak effect”.

**Q.** And the IC50 [2]?
**A.** Its IC50 is 10 to 100 nM.

**Q.** What about the IC50 [3] of the same compound?
**A.** Its IC50 is 1 to 10 nM.

**Q.** And the IC50 [4]?
**A.** Its IC50 is 46 nM.

**Q.** And the IC50 [5]?
**A.** Its IC50 is 10 to 100 nM.
